From PubChem BioAssay AID192 (DTP/NCI, 2004)
Values joined by “and” are separate entries in the source; they are usually repeats but may differ in a detail not shown here. Equal values may be shown once. Inconclusive results and toxic doses are left out. The calls were made as follows: active = survival T/C of 150% or more; inactive = T/C below 125% in these data.

Test system: BDF1 mice, B16 melanoma ip, median survival T/C
Assay: NCI In Vivo Anticancer Drug Screen. Data for tumor model B16 Melanoma (intraperitoneal) in B6D2F1 (BDF1) mice
Conditions: endpoint: median survival time, higher = longer survival
Procedure, shortened: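 Survival or tumor size is measured after treatment of tumor-bearing mice and normalised to the vehicle-treated control group.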

[1] = dose: 100.0 mg/kg/injection, schedule: Q01DX009 (ip), vehicle: Klucel (hydroxypropylcellulose) (HPC)
[2] = dose: 100.0 mg/kg/injection, schedule: Q04DX003 (ip), vehicle: Klucel (hydroxypropylcellulose) (HPC)
[3] = dose: 200.0 mg/kg/injection, schedule: Q01DX009 (ip), vehicle: Klucel (hydroxypropylcellulose) (HPC)
[4] = dose: 200.0 mg/kg/injection, schedule: Q04DX003 (ip), vehicle: Klucel (hydroxypropylcellulose) (HPC)
[5] = dose: 400.0 mg/kg/injection, schedule: Q01DX009 (ip), vehicle: Klucel (hydroxypropylcellulose) (HPC)
[6] = dose: 400.0 mg/kg/injection, schedule: Q04DX003 (ip), vehicle: Klucel (hydroxypropylcellulose) (HPC)
[7] = dose: 100.0 mg/kg/injection, schedule: Q01DX009 (ip), vehicle: saline with Tween-80
[8] = dose: 100.0 mg/kg/injection, schedule: Q04DX003 (ip), vehicle: saline with Tween-80
[9] = dose: 200.0 mg/kg/injection, schedule: Q04DX003 (ip), vehicle: saline with Tween-80
[10] = dose: 400.0 mg/kg/injection, schedule: Q04DX003 (ip), vehicle: saline with Tween-80

Measured: T/C

C=C(C)C(=O)OC1C/C(CO)=C\C(O)C/C(C)=C/C2OC(=O)C(=C)C21 (configuration not stated)
inactive: dose: 1.25 mg/kg/injection, schedule: Q01DX009 (ip), vehicle: saline + alcohol 110 % of control | dose: 2.5 mg/kg/injection, schedule: Q01DX009 (ip), vehicle: saline + alcohol 90 % of control | dose: 5.0 mg/kg/injection, schedule: Q01DX009 (ip), vehicle: saline + alcohol 92 % of control | dose: 10.0 mg/kg/injection, schedule: Q01DX009 (ip), vehicle: saline + alcohol 100 % of control | dose: 20.0 mg/kg/injection, schedule: Q01DX009 (ip), vehicle: saline + alcohol 91 % of control | dose: 40.0 mg/kg/injection, schedule: Q01DX009 (ip), vehicle: saline + alcohol 95 % of control

Cc1cccc(C)c1NC(=O)Nc1cccc(Cl)c1
inactive: [1] 100 % of control | [2] 100 % of control | [3] 100 % of control | [4] 100 % of control | [5] 86 % of control | [6] 100 % of control

CC(C)CCC[C@@H](C)[C@H]1CC[C@H]2[C@@H]3CC=C4C[C@@H](OC(=O)Cc5ccc(N(CCCl)CCCl)cc5)CC[C@]4(C)[C@H]3CC[C@]12C
inactive: dose: 50.0 mg/kg/injection, schedule: Q01DX009 (oral), vehicle: saline 108 % of control | dose: 100.0 mg/kg/injection, schedule: Q01DX009 (oral), vehicle: saline 104 % of control | dose: 200.0 mg/kg/injection, schedule: Q01DX009 (oral), vehicle: saline 110 % of control | dose: 400.0 mg/kg/injection, schedule: Q01DX009 (oral), vehicle: saline 104 % of control | dose: 800.0 mg/kg/injection, schedule: Q01DX009 (oral), vehicle: saline 110 % of control

CC(=O)Nc1cc(F)c([N+](=O)[O-])cc1[N+](=O)[O-]
inactive: dose: 0.63 mg/kg/injection, schedule: Q01DX009 (ip), vehicle: saline with Tween-80 104 % of control | dose: 1.25 mg/kg/injection, schedule: Q01DX009 (ip), vehicle: saline with Tween-80 90 % of control | dose: 2.5 mg/kg/injection, schedule: Q01DX009 (ip), vehicle: saline with Tween-80 104 % of control

Cc1ccc(Nc2ccc([N+](=O)[O-])cc2[N+](=O)[O-])c(C)c1
inactive: [1] 93 % of control | [3] 98 % of control | [5] 97 % of control

CCC(=O)OCC(=O)[C@]1(O)Cc2c(O)c3c(c(O)c2[C@@H](OC2CC(N)C(O)C(C)O2)C1)C(=O)c1c(OC)cccc1C3=O (some centres not stated)
active: dose: 0.25 mg/kg/injection, schedule: Q01DX009 (ip), vehicle: saline 188 % of control | dose: 0.5 mg/kg/injection, schedule: Q01DX009 (ip), vehicle: saline 175 % of control | dose: 1.0 mg/kg/injection, schedule: Q01DX009 (ip), vehicle: saline 169 % of control and 195 % of control | dose: 2.0 mg/kg/injection, schedule: Q01DX009 (ip), vehicle: saline 177 % of control and 260 % of control

O=[N+]([O-])c1ccc2c(c1)=N/C(=N\c1nc(O)c(O)[nH]1)N=2
inactive: [1] 86 % of control | [3] 100 % of control | [5] 103 % of control

CCCCCCC(=O)O[C@H]1CC[C@H]2[C@@H]3CCC4=CC(=O)CC[C@]4(C)[C@H]3CC[C@]12C
inactive: dose: 10.0 mg/kg/injection, schedule: Q01DX009 (ip), vehicle: Klucel (hydroxypropylcellulose) (HPC) 96 % of control | dose: 20.0 mg/kg/injection, schedule: Q01DX009 (ip), vehicle: Klucel (hydroxypropylcellulose) (HPC) 110 % of control | dose: 40.0 mg/kg/injection, schedule: Q01DX009 (ip), vehicle: Klucel (hydroxypropylcellulose) (HPC) 89 % of control | dose: 80.0 mg/kg/injection, schedule: Q01DX009 (ip), vehicle: Klucel (hydroxypropylcellulose) (HPC) 103 % of control

CC(N)C(=O)NC(CO)C(=O)O (configuration not stated)
inactive: [7] 109 % of control | dose: 200.0 mg/kg/injection, schedule: Q01DX009 (ip), vehicle: saline with Tween-80 97 % of control | dose: 400.0 mg/kg/injection, schedule: Q01DX009 (ip), vehicle: saline with Tween-80 97 % of control

C[CH2][Sn]1([CH2]C)[O]OC(c2ccccc2)[O]1 (configuration not stated)
inactive: dose: 0.78 mg/kg/injection, schedule: Q01DX009 (ip), vehicle: saline with Tween-80 106 % of control | dose: 1.56 mg/kg/injection, schedule: Q01DX009 (ip), vehicle: saline with Tween-80 105 % of control and 111 % of control | dose: 3.12 mg/kg/injection, schedule: Q01DX009 (ip), vehicle: saline with Tween-80 109 % of control and 112 % of control | dose: 6.25 mg/kg/injection, schedule: Q01DX009 (ip), vehicle: saline with Tween-80 113 % of control and 116 % of control | dose: 12.5 mg/kg/injection, schedule: Q01DX009 (ip), vehicle: saline with Tween-80 101 % of control and 117 % of control

COc1cc2c(cc1OC)C1CC(=O)C(CC(C)C)CN1CC2 (configuration not stated)
inactive: dose: 6.25 mg/kg/injection, schedule: Q01DX009 (ip), vehicle: Klucel (hydroxypropylcellulose) (HPC) 100 % of control | dose: 25.0 mg/kg/injection, schedule: Q01DX009 (ip), vehicle: Klucel (hydroxypropylcellulose) (HPC) 100 % of control | dose: 50.0 mg/kg/injection, schedule: Q01DX009 (ip), vehicle: Klucel (hydroxypropylcellulose) (HPC) 95 % of control | [1] 97 % of control

COC(=O)CC(=O)c1ccc(C)cc1
inactive: [1] 103 % of control | [3] 95 % of control

C=C(C)CNC1=C(C)C(=O)C2=C(C1=O)[C@H](COC(N)=O)[C@]1(OC)[C@@H]3N[C@@H]3CN21
inactive: dose: 0.13 mg/kg/injection, schedule: Q01DX001 (ip), vehicle: distilled water + Tween-80 100 % of control | dose: 0.25 mg/kg/injection, schedule: Q01DX001 (ip), vehicle: distilled water + Tween-80 114 % of control | dose: 1.5 mg/kg/injection, schedule: Q04DX003 (ip), vehicle: distilled water + Tween-80 123 % of control
active: dose: 2.0 mg/kg/injection, schedule: Q01DX001 (ip), vehicle: distilled water + Tween-80 153 % of control | dose: 3.0 mg/kg/injection, schedule: Q04DX003 (ip), vehicle: distilled water + Tween-80 157 % of control | dose: 4.0 mg/kg/injection, schedule: Q01DX001 (ip), vehicle: distilled water + Tween-80 167 % of control | dose: 6.0 mg/kg/injection, schedule: Q04DX003 (ip), vehicle: distilled water + Tween-80 215 % of control | dose: 12.0 mg/kg/injection, schedule: Q04DX003 (ip), vehicle: distilled water + Tween-80 285 % of control

Cc1ccc(C)c(NC(=O)c2ccc(Cl)cc2Cl)c1
inactive: [8] 100 % of control | [9] 94 % of control | [10] 88 % of control

Cc1cnc2c(=N)n(C(=O)C(F)(F)F)n(C)c2n1
inactive: [1] 90 % of control | [3] 94 % of control

CCCCCCCCC(=O)CCC
inactive: [2] 88 % of control | [4] 90 % of control | [6] 94 % of control

COCCNCCOC
inactive: dose: 160.0 mg/kg/injection, schedule: Q01DX009 (ip), vehicle: saline 118 % of control | dose: 370.0 mg/kg/injection, schedule: Q01DX009 (ip), vehicle: saline 121 % of control

CC(C)(C)n1cc(C(=O)c2ccccc2)cc1-c1ccccc1
inactive: [8] 97 % of control | [9] 100 % of control | [10] 100 % of control

CCOC(=O)c1ccc(OC(=O)Nc2ccccc2)cc1
inactive: dose: 25.0 mg/kg/injection, schedule: Q01DX009 (ip), vehicle: saline with Tween-80 97 % of control | dose: 50.0 mg/kg/injection, schedule: Q01DX009 (ip), vehicle: saline with Tween-80 97 % of control | [7] 93 % of control and 95 % of control

CNCCN(C)CCNC
inactive: dose: 25.0 mg/kg/injection, schedule: Q01DX009 (ip), vehicle: saline 98 % of control | dose: 50.0 mg/kg/injection, schedule: Q01DX009 (ip), vehicle: saline 89 % of control | dose: 100.0 mg/kg/injection, schedule: Q01DX009 (ip), vehicle: saline 95 % of control

C=C(C)C12CC(COC(=O)c3ccccc3)C34OC5(OC1C3C1OC1(COC(=O)CCCCCCCCCCCCCCC)C(O)C1(O)C(OC(=O)c3ccccc3)C(C)C(C(C)CCCCCCC5O)C14)O2 (configuration not stated)
inactive: dose: 0.5 micrograms/kg/injection, schedule: Q01DX009 (ip), vehicle: saline 106 % of control | dose: 1.0 micrograms/kg/injection, schedule: Q01DX009 (ip), vehicle: saline 99 % of control | dose: 1.9 micrograms/kg/injection, schedule: Q01DX009 (ip), vehicle: saline 100 % of control | dose: 3.8 micrograms/kg/injection, schedule: Q01DX009 (ip), vehicle: saline 109 % of control | dose: 7.5 micrograms/kg/injection, schedule: Q01DX009 (ip), vehicle: saline 94 % of control | dose: 15.0 micrograms/kg/injection, schedule: Q01DX009 (ip), vehicle: saline 96 % of control | dose: 30.0 micrograms/kg/injection, schedule: Q01DX009 (ip), vehicle: saline 96 % of control
